How the values were obtained:
PC3 (prostate) = assay: In vitro cytotoxic activity (MTT) assay, PC3; format: cell-based; settings: Homo sapiens, Prostate cell; PC3 (prostate) cells, exposed for 96 hours; read-out: IC50, concentration eliciting 50% inhibition of cell proliferation
Procedure: (§1) Compounds 1-16 were screened for their in vitro cytotoxic activity utilizing a 3-(4,5-dimethyl-thiazol-2-yl)-2,5-diphenyltetrazolium bromide (MTT) assay against selected cancer human cell lines consisting of PC3 (prostate), HCT116 (colon), A375 (melanoma), H1299 (lung), MIAPaCa-2 (pancreas), HL60 (leukemia), MCF7 (breast), MDA-MB-231 (breast) (T. Mosmann, J. Immunol. Meth., 1983, 65, 55-63). The cells were cultured at 37° C. in RMPI1640 medium supplemented with 10% fetal bovine serum, 50 IU/mL penicillin, and 50 μg/mL streptomycin in a 5% CO2 incubator. All cells were sub-cultured 3 times/week by trypsinisation. Viable cells were seeded and allowed to adhere for 12 h before a test drug was added in 96-well plates at an initial density of 1.0×10^5 cells/mL. Tumour cell lines were separately exposed to various concentrations of the tested compounds followed by incubation at a temperature of 37° C. during 96 h inside a medium of fresh RMPI 1640. Cells were subsequently incubated at 37° C. using MTT at 0.5 mg/mL during 4 h. After removal of supernatant, formazan crystals were dissolved in isopropanol and the optical density was measured at 570 nm. CX-4945 was used as a positive control.

HCT116 (colon) = assay: In vitro cytotoxic activity (MTT) assay, HCT116; format: cell-based; settings: Homo sapiens, HCT-116; HCT116 (colon) cells, exposed for 96 hours; read-out: IC50, concentration eliciting 50% inhibition of cell proliferation
Procedure: as §1

A375 (melanoma) = assay: In vitro cytotoxic activity (MTT) assay, A375; format: cell-based; settings: Homo sapiens, A-375; A375 (melanoma) cells, exposed for 96 hours; read-out: IC50, concentration eliciting 50% inhibition of cell proliferation
Procedure: as §1

H1299 (lung) = assay: In vitro cytotoxic activity (MTT) assay, H1299; format: cell-based; settings: Homo sapiens, NCI-H1299; H1299 (lung) cells, exposed for 96 hours; read-out: IC50, concentration eliciting 50% inhibition of cell proliferation
Procedure: as §1

MIAPaCa-2 (pancreas) = assay: In vitro cytotoxic activity (MTT) assay, MIAPaCa-2; format: cell-based; settings: Homo sapiens, MIA PaCa-2; MIAPaCa-2 (pancreas) cells, exposed for 96 hours; read-out: IC50, concentration eliciting 50% inhibition of cell proliferation
Procedure: as §1

HL60 (leukemia) = assay: In vitro cytotoxic activity (MTT) assay, HL60; format: cell-based; settings: Homo sapiens, HL-60; HL60 (leukemia) cells, exposed for 96 hours; read-out: IC50, concentration eliciting 50% inhibition of cell proliferation
Procedure: as §1

MCF7 (breast) = assay: In vitro cytotoxic activity (MTT) assay, MCF7; format: cell-based; settings: Homo sapiens; MCF7 (breast) cells, exposed for 96 hours; read-out: IC50, concentration eliciting 50% inhibition of cell proliferation
Procedure: as §1

MDA-MB-231 (breast) = assay: In vitro cytotoxic activity (MTT) assay, MDA-MB-231; format: cell-based; settings: Homo sapiens; MDA-MB-231 (breast) cells, exposed for 96 hours; read-out: IC50, concentration eliciting 50% inhibition of cell proliferation
Procedure: as §1

[1] = target: T1, recombinant human CK2 (RRββ-holoenzyme) (Homo sapiens, UniProt P68400); assay: CK2 kinase assay (33P-ATP, substrate peptide RRRDDDSDDD); format: biochemical; settings: final ATP concentration 15 μM, 10 min at 30° C.; read-out: protein kinase CK2 IC50
T1 construct: purchased Millipore
T1 sequence (P68400 whole entry): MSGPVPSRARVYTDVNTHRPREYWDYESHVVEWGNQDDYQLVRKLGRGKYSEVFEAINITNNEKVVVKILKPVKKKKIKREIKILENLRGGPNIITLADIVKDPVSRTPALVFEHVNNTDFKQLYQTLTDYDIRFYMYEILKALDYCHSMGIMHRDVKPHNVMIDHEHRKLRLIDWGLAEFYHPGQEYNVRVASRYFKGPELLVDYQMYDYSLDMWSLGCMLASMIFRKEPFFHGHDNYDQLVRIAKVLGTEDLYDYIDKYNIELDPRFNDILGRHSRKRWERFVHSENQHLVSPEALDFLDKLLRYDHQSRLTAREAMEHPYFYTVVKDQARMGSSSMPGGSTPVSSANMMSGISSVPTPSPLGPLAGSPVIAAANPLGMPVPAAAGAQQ
T1 sequence (P67870 whole entry partner): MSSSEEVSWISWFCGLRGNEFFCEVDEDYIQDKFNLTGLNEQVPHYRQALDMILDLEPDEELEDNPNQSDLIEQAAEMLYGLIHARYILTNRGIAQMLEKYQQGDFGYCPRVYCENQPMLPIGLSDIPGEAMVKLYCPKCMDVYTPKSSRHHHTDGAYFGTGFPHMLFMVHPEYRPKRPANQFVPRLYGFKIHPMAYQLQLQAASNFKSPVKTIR
Procedure: CK2 Kinase Assay was conducted using the protocol as described in Pierre F. et al; J. Med. Chem. 2011, 54, 635-654. The tested compounds in aqueous solution were added at a volume of 10 μL to a reaction mixture comprising 10 μL of assay dilution buffer (ADB; 20 mM MOPS, pH 7.2, 25 mM β-glycerol phosphate, 5 mM EGTA, 1 mM sodium orthovanadate, and 1 mM dithiothreitol), 10 μL of substrate peptide (RRRDDDSDDD, dissolved in ADB at a concentration of 1 mM), 10 μL of recombinant human CK2 (RRββ-holoenzyme, 25 ng dissolved in ADB; Millipore). Reactions were initiated by the addition of 10 μL of ATP solution (90% 75 mMMgCl2, 75 μM ATP (final ATP concentration: 15 μM) dissolved in ADB; 10% [γ-33P] ATP (stock 1 mCi/100 μL; 3000 Ci/mmol (Perkin-Elmer) and maintained for 10 min at 30° C. The reactions were quenched with 100 μL of 0.75% phosphoric acid and then transferred to and filtered through a phosphor cellulose filter plate (Millipore). After washing each well five times with 0.75% phosphoric acid, the plate was dried under vacuum for 5 min and, following the addition of 15 μL of scintillation fluid to each well, the residual radioactivity was measured using a Wallac […] counter. The IC50 values were derived from eight concentrations of test inhibitors.

Question: Which results are given for `O=c1[nH]ccc2c1[nH]c1c3ccncc3c(Nc3cccc(Cl)c3)nc21` [Compound 1, 5-((3-chlorophenyl)amino)-9,11-dihydro-10H-pyrido[4′,3′:4,5]pyrrolo[3,2-c][2,7]naphthyridin-10-one]?
Answer: IC50 (PC3 (prostate)): 2.1 µM; IC50 (HCT116 (colon)): 1.9 µM; IC50 (A375 (melanoma)): 3.3 µM; IC50 (H1299 (lung)): 1 µM; IC50 (MIAPaCa-2 (pancreas)): 1.7 µM; IC50 (HL60 (leukemia)): 3.4 µM; IC50 (MCF7 (breast)): 6.2 µM; IC50 (MDA-MB-231 (breast)): 4.8 µM; IC50 [1]: 0.038 µM
